Measurements from patent US8778973B2, “Alkene oxindole derivatives” (Hoffmann-La Roche Inc., priority 2009, dated 2014).

What follows are compounds tested on Recombinant human AMPK proteins (α1β1γ1, α2β1γ1, α1(1-335), α1(1-394) or α2(1-394)) (assay: Scintillation Proximity Assay (SPA) of AMPK activation). Conditions: activator concentration for 50% of maximal enzyme activity; 50 nM recombinant AMPK, 2 μM ATP, 30° C., 2 hr.
Format: biochemical
Method: Recombinant human AMPK α1β1γ1, α2β1γ1 or AMPK α subunit truncations α1(1-335), α1(1-394) and α2(1-394) were constructed, expressed and purified as described previously (Pang, T., Zhang, Z. S., Gu, M., Qiu, B. Y., Yu, L. F., Cao, P. R., Shao, W., Su, M. B., Li, J. Y., Nan, F. J., and Li, J. (2008)). Rat liver AMPK heterotrimer enzyme was obtained from Upstate (Billerica, Mass., U.S.A.).
Scintillation Proximity Assay
Before the Scintillation Proximity Assay (SPA) assay, 200 nM recombinant AMPK proteins (α1β1γ1, α2β1γ1, α1(1-335), α1(1-394) or α2(1-394)) were fully phosphorylated as described previously (Pang et al., 2008). SPA reactions were performed in 96-well plates at a final volume of 501 containing 20 mM Tris-HCl pH 7.5, 5 mM MgCl2, 1 mM DTT, 2 μM biotin-SAMS, 2 μM ATP, 0.2 μCi/well [γ-^33P]ATP, and various amount of activator. Reactions were initiated by the addition of 50 nM recombinant AMPK proteins to the reaction solutions and incubated at 30° C. for 2 hr. After that, reactions were terminated by the addition of 401 stop solution containing 80 μg streptavidin-coated SPA beads per well, 50 mM EDTA, 0.1% Triton X-100 in PBS, pH 7.5 and incubated for 1 hr. Finally, a 160 ul suspension solution containing 2.4 M CsCl, 50 mM EDTA, and 0.1% Triton X-100 in PBS (pH 7.5) was added to the reaction solution to suspend SPA beads completely. SPA signals were determined with a Wallac MicroBeta plate counter (PerkinElmer) 30 min later for calculation of the amount of product formed. The amount of products formed in 2 hr was plotted against activator concentrations to determine the effective concentration of the activator (EC50) required for 50% of maximal enzyme activity.
Compounds as described above have EC50 values between 0.5 uM and 50 uM, preferred compounds have EC50 values between 0.5 uM and 10 uM, particularly preferred compounds have EC50 values between 0.5 uM and 1 uM.

Row | SMILES | EC50
1 | COC(=O)c1cccc(CN2C(=O)/C(=C(\c3ccccc3)c3ccc(OC)cc3)c3ccccc32)c1 [Example 8, 3-{3-[1-(4-Methoxy-phenyl)-1-phenyl-meth-(E)-ylidene]-2-oxo-2,3-dihydro-indol-1-ylmethyl}-benzoic acid methyl ester] | 6.47 µM
2 | O=C1/C(=C(\c2ccccc2)c2ccc(Cl)cc2)c2ccccc2N1Cc1ccc(O)cc1 [Example 43, 3-[1-(4-Chloro-phenyl)-1-phenyl-meth-(E)-ylidene]-1-(4-hydroxy-benzyl)-1,3-dihydro-indol-2-one] | 3.23 µM
3 | O=C(O)c1ccc(CN2C(=O)/C(=C(\c3ccccc3)c3ccc(Cl)cc3)c3ccccc32)nc1 [Example 59, 6-{3-[1-(4-Chloro-phenyl)-1-phenyl-meth-(E)-ylidene]-2-oxo-2,3-dihydro-indol-1-ylmethyl}-nicotinic acid] | 5.19 µM
4 | CC(=O)c1ccc(/C(=C2/C(=O)N(Cc3cccc(C(=O)O)c3)c3ccccc32)C(C)C)cc1 [Example 108, 3-{3-[1-(4-Acetyl-phenyl)-2-methyl-prop-(E)-ylidene]-2-oxo-2,3-dihydro-indol-1-ylmethyl}-benzoic acid] | 3.25 µM
5 | COC(=O)c1cccc(CN2C(=O)/C(=C(\c3ccccc3)c3ccc(Cl)cc3)c3cc(F)ccc32)c1 [Example 18, 3-{3-[1-(4-Chloro-phenyl)-1-phenyl-meth-(E)-ylidene]-5-fluoro-2-oxo-2,3-dihydro-indol-1-ylmethyl}-benzoic acid methyl ester] | 5.66 µM
6 | O=C1/C(=C(\c2ccccc2)c2ccc(Cl)cc2)c2ccccc2N1Cc1cc(O)c(O)c(O)c1 [Example 41, 3-[1-(4-Chloro-phenyl)-1-phenyl-meth-(E)-ylidene]-1-(3,4,5-trihydroxy-benzyl)-1,3-dihydro-indol-2-one] | 4.51 µM
7 | O=C(O)c1cccc(CN2C(=O)/C(=C(\c3ccccc3)c3cccc(C(F)(F)F)c3)c3ccccc32)c1 [Example 66, 3-{2-Oxo-3-[1-phenyl-1-(3-trifluoromethyl-phenyl)-meth-(E)-ylidene]-2,3-dihydro-indol-1-ylmethyl}-benzoic acid] | 2.44 µM
8 | CC(C)/C(Cc1ccc(Cl)cc1)=C1\C(=O)N(Cc2cccc(C(=O)O)c2)c2ccccc21 [Example 82, 3-{3-[1-(4-Chloro-benzyl)-2-methyl-prop-(Z)-ylidene]-2-oxo-2,3-dihydro-indol-1-ylmethyl}-benzoic acid] | 1.6 µM
9 | COc1cc(/C(=C2/C(=O)N(Cc3cccc(C(=O)O)c3)c3ccccc32)c2ccccc2)cc(OC)c1OC [Example 51, 3-{2-Oxo-3-[1-phenyl-1-(3,4,5-trimethoxy-phenyl)-meth-(E)-ylidene]-2,3-dihydro-indol-1-ylmethyl}-benzoic acid] | 1.42 µM
10 | CC(C)/C(=C1\C(=O)N(Cc2cccc(C(=O)O)c2)c2ccc(Cl)cc21)c1ccc(C(F)(F)F)cc1 [Example 107, 3-{5-Chloro-3-[2-methyl-1-(4-trifluoromethyl-phenyl)-prop-(E)-ylidene]-2-oxo-2,3-dihydro-indol-1-ylmethyl}-benzoic acid] | 0.66 µM
11 | COC(=O)c1cccc(CN2C(=O)/C(=C(\c3ccccc3)c3ccccc3Cl)c3ccccc32)c1 [Example 17, 3-{3-[1-(2-Chloro-phenyl)-1-phenyl-meth-(E)-ylidene]-2-oxo-2,3-dihydro-indol-1-ylmethyl}-benzoic acid methyl ester] | 2.34 µM
12 | CC(C)CC/C(=C1/C(=O)N(Cc2cccc(C(=O)O)c2)c2ccccc21)c1ccccc1 [Example 81, 3-[3-(4-Methyl-1-phenyl-pent-(Z)-ylidene)-2-oxo-2,3-dihydro-indol-1-ylmethyl]-benzoic acid] | 4.74 µM
13 | COc1ccccc1/C(=C1\C(=O)N(Cc2cccc(C(=O)O)c2)c2ccccc21)c1ccc(Cl)cc1 [Example 47, 3-{3-[1-(4-Chloro-phenyl)-1-(2-methoxy-phenyl)-meth-(Z)-ylidene]-2-oxo-2,3-dihydro-indol-1-ylmethyl}-benzoic acid] | 2.38 µM
14 | O=C(O)c1cccc(CN2C(=O)/C(=C(\c3ccccc3)c3ccc(Cl)cc3)c3ccc(F)cc32)c1 [Example 61, 3-{3-[1-(4-Chloro-phenyl)-1-phenyl-meth-(E)-ylidene]-6-fluoro-2-oxo-2,3-dihydro-indol-1-ylmethyl}-benzoic acid] | 4.93 µM
15 | COC(=O)c1cccc(CN2C(=O)/C(=C(\c3ccccc3)c3ccccc3S(C)(=O)=O)c3ccccc32)c1 [Example 32, 3-{3-[1-(2-Methanesulfonyl-phenyl)-1-phenyl-meth-(E)-ylidene]-2-oxo-2,3-dihydro-indol-1-ylmethyl}-benzoic acid methyl ester] | 10.5 µM
16 | COC(=O)c1cccc(CN2C(=O)/C(=C(\c3ccccc3)c3ccccc3SC)c3ccccc32)c1 [Example 28, 3-{3-[1-(2-Methylsulfanyl-phenyl)-1-phenyl-meth-(E)-ylidene]-2-oxo-2,3-dihydro-indol-1-ylmethyl}-benzoic acid methyl ester] | 0.8 µM
17 | COC(=O)c1cccc(CN2C(=O)/C(=C(\c3ccccc3)c3ccc(F)c(Cl)c3)c3ccccc32)c1 [Example 13, 3-{3-[1-(3-Chloro-4-fluoro-phenyl)-1-phenyl-meth-(E)-ylidene]-2-oxo-2,3-dihydro-indol-1-ylmethyl}-benzoic acid methyl ester] | 1.86 µM
18 | CCOC(=O)c1cccc(N2C(=O)/C(=C(\C)c3ccccc3)c3ccccc32)c1 [Example 1, 3-[2-Oxo-3-(1-phenyl-ethylidene)-2,3-dihydro-indol-1-yl]-benzoic acid ethyl ester] | 2.21 µM
19 | O=C(O)c1cccc(CN2C(=O)/C(=C(\c3ccccc3)c3cccc(Cl)c3)c3ccccc32)c1 [Example 52, 3-{3-[1-(3-Chloro-phenyl)-1-phenyl-meth-(E)-ylidene]-2-oxo-2,3-dihydro-indol-1-ylmethyl}-benzoic acid] | 6.55 µM
20 | O=C(O)c1cccc(CN2C(=O)/C(=C(\c3ccccc3)c3cc(C(F)(F)F)cc(C(F)(F)F)c3)c3ccccc32)c1 [Example 65, 3-{3-[1-(3,5-Bis-trifluoromethyl-phenyl)-1-phenyl-meth-(E)-ylidene]-2-oxo-2,3-dihydro-indol-1-ylmethyl}-benzoic acid] | 3.41 µM
21 | O=C(O)c1cccc(CN2C(=O)/C(=C(\c3ccc(Cl)cc3)c3ccc(C(F)(F)F)cc3)c3ccccc32)c1 [Example 69, 3-{3-[1-(4-Chloro-phenyl)-1-(4-trifluoromethyl-phenyl)-meth-(Z)-ylidene]-2-oxo-2,3-dihydro-indol-1-ylmethyl}-benzoic acid] | 2.2 µM
22 | COC(=O)c1cccc(CN2C(=O)/C(=C(\c3ccc(Cl)cc3)c3ccc(C(F)(F)F)cc3)c3ccccc32)c1 [Example 35, 3-{3-[1-(4-Chloro-phenyl)-1-(4-trifluoromethyl-phenyl)-meth-(Z)-ylidene]-2-oxo-2,3-dihydro-indol-1-ylmethyl}-benzoic acid methyl ester] | 2.95 µM
23 | COc1ccc(/C(=C2/C(=O)N(Cc3cccc(C(=O)O)c3)c3ccccc32)c2ccccc2)cc1 [Example 46, 3-{3-[1-(4-Methoxy-phenyl)-1-phenyl-meth-(E)-ylidene]-2-oxo-2,3-dihydro-indol-1-ylmethyl}-benzoic acid] | 4.02 µM
24 | CCOC(=O)COc1ccc(CN2C(=O)/C(=C(\c3ccccc3)c3ccc(Cl)cc3)c3ccccc32)cc1 [Example 36, (4-{3-[1-(4-Chloro-phenyl)-1-phenyl-meth-(E)-ylidene]-2-oxo-2,3-dihydro-indol-1-ylmethyl}-phenoxy)-acetic acid ethyl ester] | 3.69 µM
25 | COC(=O)c1cccc(CN2C(=O)/C(=C(/c3ccc(C(C)=O)cc3)C(C)C)c3ccccc32)c1 [Example 86, 3-{3-[1-(4-Acetyl-phenyl)-2-methyl-prop-(E)-ylidene]-2-oxo-2,3-dihydro-indol-1-ylmethyl}-benzoic acid methyl ester] | 7.88 µM
26 | COC(=O)c1cccc(CN2C(=O)/C(=C(\c3ccccc3)c3cccc(Cl)c3Cl)c3ccccc32)c1 [Example 20, 3-{3-[1-(2,3-Dichloro-phenyl)-1-phenyl-meth-(E)-ylidene]-2-oxo-2,3-dihydro-indol-1-ylmethyl}-benzoic acid methyl ester] | 1.76 µM
27 | O=C(O)c1cccc(CN2C(=O)/C(=C(\c3ccccc3)c3ccc(F)c(F)c3)c3ccccc32)c1 [Example 72, 3-{3-[1-(3,4-Difluoro-phenyl)-1-phenyl-meth-(E)-ylidene]-2-oxo-2,3-dihydro-indol-1-ylmethyl}-benzoic acid] | 3.3 µM
